Test results: US9708312B2, “Dihydropyrimidinoisoquinolinones and pharmaceutical compositions thereof for the treatment of inflammatory disorders (GPR84 antagonists)” (GALAPAGOS NV, priority 2012, dated 2017)

Target: T1, GPR84 (Homo sapiens, UniProt Q9NQS5)
T1 construct: expressed in transfected cells
Assay: GPR84 [35S]GTPγS binding assay, HEPES buffer
Type: biochemical
Details: 3,3′ di indolylmethane at EC80, membranes from stable cell line over expressing GPR84
Procedure, shortened: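 Membranes from a stable GPR84-overexpressing cell line (20 μg/well), pre-incubated with 0.1 μM GDP for 15 min at 4° C, mixed with 0.1 nM [35S]GTPγS and WGA SpA beads in 20 mM HEPES pH 7.4, 5 mM MgCl2, 250 mM NaCl, 0.05% BSA, 75 ug/mL saponin. Incubated 90 min at room temperature; scintillation proximity read after centrifugation.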

T1 sequence (Q9NQS5 whole entry): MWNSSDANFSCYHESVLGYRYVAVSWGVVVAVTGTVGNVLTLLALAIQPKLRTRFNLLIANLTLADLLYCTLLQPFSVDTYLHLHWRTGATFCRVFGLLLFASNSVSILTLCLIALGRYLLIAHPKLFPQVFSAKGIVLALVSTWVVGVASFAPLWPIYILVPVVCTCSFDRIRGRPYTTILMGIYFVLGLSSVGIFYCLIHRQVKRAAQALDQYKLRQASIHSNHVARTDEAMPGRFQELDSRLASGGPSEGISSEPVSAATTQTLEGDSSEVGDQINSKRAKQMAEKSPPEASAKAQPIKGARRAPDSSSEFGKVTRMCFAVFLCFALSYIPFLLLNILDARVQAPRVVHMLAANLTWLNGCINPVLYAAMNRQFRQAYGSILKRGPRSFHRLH

IC50 [nM]	Compound
0.01 to 100	O=c1nc(OCC2CCCO2)cc2n1CCc1cc(OCc3ccc4ccccc4c3)ccc1-2 (centres unmarked) [compound 37, 9-(naphthalen-2-ylmethoxy)-2-(tetrahydro-furan-2-ylmethoxy)-6,7-dihydro-pyrimido[6,1-a]isoquinolin-4-one]
100 to 500	O=c1nc(OCC2COc3ccccc3O2)cc2n1CCc1cc(OCCCN3CCCCC3)ccc1-2 (centres unmarked) [compound 81, 2-(2,3-dihydro-benzo[1,4]dioxin-2-ylmethoxy)-9-(3-piperidin-1-yl-propoxy)-6,7-dihydro-pyrimido[6,1-a]isoquinolin-4-one]
100 to 500	CN1CCN(CCCOc2ccc3c(c2)CCn2c-3cc(OCC3COc4ccccc4O3)nc2=O)CC1 (centres unmarked) [compound 84, 2-(2,3-dihydro-benzo[1,4]dioxin-2-ylmethoxy)-9-[3-(4-methyl-piperazin-1-yl)-propoxy]-6,7-dihydro-pyrimido[6,1-a]isoquinolin-4-one]
100 to 500	O=c1nc(OCC2CCCO2)cc2n1CCc1cc(-c3ccccc3)ccc1-2 (centres unmarked) [compound 96, 9-phenyl-2-(tetrahydro-furan-2-ylmethoxy)-6,7-dihydro-pyrimido[6,1-a]isoquinolin-4-one]
0.01 to 100	Cc1cc(COc2ccc3c(c2)CCn2c-3cc(OCC3COc4ncccc4O3)nc2=O)on1 (centres unmarked) [compound 159, 2-(2,3-dihydro-[1,4]dioxino[2,3-b]pyridin-2-ylmethoxy)-9-(3-methyl-isoxazol-5-ylmethoxy)-6,7-dihydro-pyrimido[6,1-a]isoquinolin-4-one]
100 to 500	COc1ccccc1-c1ccc2c(c1)CCn1c-2cc(OCC2CCCO2)nc1=O (centres unmarked) [compound 99, 9-(2-methoxy-phenyl)-2-(tetrahydro-furan-2-ylmethoxy)-6,7-dihydro-pyrimido[6,1-a]isoquinolin-4-one]
0.01 to 100	O=c1nc(OCC2COc3ccccc3O2)cc2n1CCc1cc(OCc3ccccn3)ccc1-2 (centres unmarked) [compound 28, 2-(2,3-dihydro-benzo[1,4]dioxin-2-ylmethoxy)-9-(pyridin-2-ylmethoxy)-6,7-dihydro-pyrimido[6,1-a]isoquinolin-4-one]
0.01 to 100	CCOc1ccc(-c2ccc3c(c2)CCn2c-3cc(OCC3COc4ncccc4O3)nc2=O)cn1 (centres unmarked) [compound 164, 2-(2,3-dihydro-[1,4]dioxino[2,3-b]pyridin-2-ylmethoxy)-9-(6-ethoxy-pyridin-3-yl)-6,7-dihydro-pyrimido[6,1-a]isoquinolin-4-one]
100 to 500	CN1CCCC1CCOc1ccc2c(c1)CCn1c-2cc(OCC2COc3ncccc3O2)nc1=O (centres unmarked) [compound 92, 2-(2,3-dihydro-[1,4]dioxino[2,3-b]pyridin-2-ylmethoxy)-9-[2-(1-methyl-pyrrolidin-2-yl)-ethoxy]-6,7-dihydro-pyrimido[6,1-a]isoquinolin-4-one]
500 to 1000	O=c1nc(OCC2CCCO2)cc2n1CCc1cc(OCc3ncco3)ccc1-2 (centres unmarked) [compound 65, 9-(oxazol-2-ylmethoxy)-2-(tetrahydro-furan-2-ylmethoxy)-6,7-dihydro-pyrimido[6,1-a]isoquinolin-4-one]
100 to 500	O=c1nc(OCC2CCCO2)cc2n1CCc1cc(OCc3ccncc3)ccc1-2 (centres unmarked) [compound 13, 9-(pyridin-4-ylmethoxy)-2-(tetrahydro-furan-2-ylmethoxy)-6,7-dihydro-pyrimido[6,1-a]isoquinolin-4-one]
100 to 500	O=c1nc(OCC2COc3ccccc3O2)cc2n1CCc1cc(OCCN3CCCCC3)ccc1-2 (centres unmarked) [compound 80, 2-(2,3-dihydro-benzo[1,4]dioxin-2-ylmethoxy)-9-(2-piperidin-1-yl-ethoxy)-6,7-dihydro-pyrimido[6,1-a]isoquinolin-4-one]
500 to 1000	O=c1nc(OCC2CCCO2)cc2n1CCc1cc(-c3cccnc3)ccc1-2 (centres unmarked) [compound 94, 9-pyridin-3-yl-2-(tetrahydro-furan-2-ylmethoxy)-6,7-dihydro-pyrimido[6,1-a]isoquinolin-4-one]
0.01 to 100	Cc1ccc(COc2ccc3c(c2)CCn2c-3cc(OCC3CCCO3)nc2=O)cc1 (centres unmarked) [compound 35, 9-(4-methyl-benzyloxy)-2-(tetrahydro-furan-2-ylmethoxy)-6,7-dihydro-pyrimido[6,1-a]isoquinolin-4-one]
